Source: the CheMixHub viscosity set

Test: xn = mol fraction of the nth substance listed

COCC(C)O (stereo not drawn) + CS(C)=O
viscosity [mPa·s], 101 kPa
Settings | 298.15 K | 303.15 K | 308.15 K | 313.15 K | 318.15 K
x1 = 0.0436 | 1.79 | 1.54 | 1.47 | 1.39 | 1.31
x1 = 0.0879 | 1.79 | 1.54 | 1.47 | 1.38 | 1.3
x1 = 0.1327 | 1.78 | 1.53 | 1.46 | 1.38 | 1.3
x1 = 0.1781 | 1.78 | 1.53 | 1.46 | 1.37 | 1.29
x1 = 0.2242 | 1.78 | 1.53 | 1.46 | 1.37 | 1.29
x1 = 0.2709 | 1.77 | 1.53 | 1.45 | 1.36 | 1.29
x1 = 0.3183 | 1.77 | 1.52 | 1.45 | 1.36 | 1.28
x1 = 0.3663 | 1.77 | 1.52 | 1.45 | 1.35 | 1.28
x1 = 0.415 | 1.76 | 1.52 | 1.44 | 1.35 | 1.28
x1 = 0.4644 | 1.75 | 1.51 | 1.43 | 1.34 | 1.27
x1 = 0.5145 | 1.75 | 1.51 | 1.43 | 1.34 | 1.26
x1 = 0.5653 | 1.75 | 1.5 | 1.42 | 1.33 | 1.25
x1 = 0.6169 | 1.73 | 1.49 | 1.41 | 1.31 | 1.24
x1 = 0.6692 | 1.72 | 1.47 | 1.39 | 1.29 | 1.22
x1 = 0.7224 | 1.7 | 1.45 | 1.37 | 1.27 | 1.2
x1 = 0.7762 | 1.67 | 1.42 | 1.34 | 1.24 | 1.17
x1 = 0.8864 | 1.62 | 1.36 | 1.28 | 1.18 | 1.11

O=[N+]([O-])c1ccccc1 + CS(C)=O
viscosity [mPa·s], 101 kPa
Settings | x2 = 0.1 | x2 = 0.2 | x2 = 0.3 | x2 = 0.4 | x2 = 0.5 | x2 = 0.6 | x2 = 0.7 | x2 = 0.8 | x2 = 0.9
298.15 K | 1.851 | 1.877 | 1.903 | 1.927 | 1.946 | 1.962 | 1.975 | 1.985 | 1.993
308.15 K | 1.569 | 1.586 | 1.605 | 1.623 | 1.639 | 1.653 | 1.662 | 1.665 | 1.664
318.15 K | 1.333 | 1.349 | 1.353 | 1.377 | 1.388 | 1.396 | 1.402 | 1.403 | 1.4

ClC(Cl)=C(Cl)Cl + Cc1ccc(C)cc1
303.15 K, 101 kPa
Settings | viscosity [mPa·s]
x1 = 0.106 | 0.586
x1 = 0.1121 | 0.588
x1 = 0.212 | 0.607
x1 = 0.6339 | 0.704
x1 = 0.6982 | 0.719
x1 = 0.7773 | 0.738
x1 = 0.8517 | 0.757

CN(C)C=O + Cc1ccccc1
Settings | viscosity [mPa·s]
293.15 K, 101 kPa, x1 = 0.0501 | 0.592
293.15 K, 101 kPa, x1 = 0.1001 | 0.607
293.15 K, 101 kPa, x1 = 0.22 | 0.641
293.15 K, 101 kPa, x1 = 0.3122 | 0.668
293.15 K, 101 kPa, x1 = 0.4002 | 0.693
293.15 K, 101 kPa, x1 = 0.5002 | 0.721
293.15 K, 101 kPa, x1 = 0.6111 | 0.751
293.15 K, 101 kPa, x1 = 0.7003 | 0.775
293.15 K, 101 kPa, x1 = 0.8122 | 0.805
293.15 K, 101 kPa, x1 = 0.9002 | 0.828
298.15 K, 101.3 kPa, x1 = 0.1224 | 0.584
298.15 K, 101.3 kPa, x1 = 0.2414 | 0.612
298.15 K, 101.3 kPa, x1 = 0.3485 | 0.639
298.15 K, 101.3 kPa, x1 = 0.4031 | 0.654
298.15 K, 101.3 kPa, x1 = 0.5545 | 0.699
298.15 K, 101.3 kPa, x1 = 0.657 | 0.723
298.15 K, 101.3 kPa, x1 = 0.7413 | 0.742
298.15 K, 101.3 kPa, x1 = 0.8336 | 0.764
298.15 K, 101.3 kPa, x1 = 0.9129 | 0.781
303.15 K, 101.3 kPa, x1 = 0.1224 | 0.55
303.15 K, 101.3 kPa, x1 = 0.2414 | 0.576
303.15 K, 101.3 kPa, x1 = 0.3485 | 0.601
303.15 K, 101.3 kPa, x1 = 0.4031 | 0.615
303.15 K, 101.3 kPa, x1 = 0.5545 | 0.657
303.15 K, 101.3 kPa, x1 = 0.657 | 0.68
303.15 K, 101.3 kPa, x1 = 0.7413 | 0.698
303.15 K, 101.3 kPa, x1 = 0.8336 | 0.718
303.15 K, 101.3 kPa, x1 = 0.9129 | 0.735
303.15 K, 101.33 kPa, x1 = 0.1037 | 0.542
303.15 K, 101.33 kPa, x1 = 0.1731 | 0.556
303.15 K, 101.33 kPa, x1 = 0.2947 | 0.581
303.15 K, 101.33 kPa, x1 = 0.3985 | 0.602
303.15 K, 101.33 kPa, x1 = 0.4729 | 0.618
303.15 K, 101.33 kPa, x1 = 0.6004 | 0.645
303.15 K, 101.33 kPa, x1 = 0.7147 | 0.67
303.15 K, 101.33 kPa, x1 = 0.7974 | 0.688
303.15 K, 101.33 kPa, x1 = 0.8981 | 0.712
308.15 K, 101.3 kPa, x1 = 0.1224 | 0.518
308.15 K, 101.3 kPa, x1 = 0.2414 | 0.541
308.15 K, 101.3 kPa, x1 = 0.3485 | 0.565
308.15 K, 101.3 kPa, x1 = 0.4031 | 0.578
308.15 K, 101.3 kPa, x1 = 0.5545 | 0.617
308.15 K, 101.3 kPa, x1 = 0.657 | 0.638
308.15 K, 101.3 kPa, x1 = 0.7413 | 0.655
308.15 K, 101.3 kPa, x1 = 0.8336 | 0.674
308.15 K, 101.3 kPa, x1 = 0.9129 | 0.69
313.15 K, 101.3 kPa, x1 = 0.1224 | 0.49
313.15 K, 101.3 kPa, x1 = 0.2414 | 0.512
313.15 K, 101.3 kPa, x1 = 0.3485 | 0.534
313.15 K, 101.3 kPa, x1 = 0.4031 | 0.547
313.15 K, 101.3 kPa, x1 = 0.5545 | 0.584
313.15 K, 101.3 kPa, x1 = 0.657 | 0.604
313.15 K, 101.3 kPa, x1 = 0.7413 | 0.619
313.15 K, 101.3 kPa, x1 = 0.8336 | 0.638
313.15 K, 101.3 kPa, x1 = 0.9129 | 0.653
313.15 K, 101.33 kPa, x1 = 0.1037 | 0.491
313.15 K, 101.33 kPa, x1 = 0.1731 | 0.505
313.15 K, 101.33 kPa, x1 = 0.2947 | 0.522
313.15 K, 101.33 kPa, x1 = 0.3985 | 0.543
313.15 K, 101.33 kPa, x1 = 0.4729 | 0.56
313.15 K, 101.33 kPa, x1 = 0.6004 | 0.583
313.15 K, 101.33 kPa, x1 = 0.7147 | 0.604
313.15 K, 101.33 kPa, x1 = 0.7974 | 0.622
313.15 K, 101.33 kPa, x1 = 0.8981 | 0.643
